Test results reported in US20220159969A1, “COMPOSITION AND METHOD FOR ENHANCING SPORE GERMINATION AND BIOLOGICAL EFFICACY” (priority 2019, published 2022).

What was measured:
Type in all cases: in vivo
[1] = tested on: apple scab (Venturia inaequalis); assay: Apple scab foliar symptoms on potted Gala apple trees (Example 6)
Procedure: The trial was carried out on potted trees of the Gala variety. Six trees per treatment were reserved for this test.
Two application strategies were tested: (a) one application four days before pathogen inoculation; and (b) a first application four days before pathogen inoculation and a second application after pathogen inoculation when a cumulative of 300° C./hour was reached after the inoculation.
A solution of conidia of V. inaequalis was prepared from 2018 scabbed leaves stored in the freezer. The trees were kept under fog for at least one hour before contamination and then at least 12 hours afterwards. The duration was adapted according to ambient temperature and humidity. The spray volume was defined after a blank test to cover sufficient vegetation without reaching the runoff point (between 30 and 50 mL/tree). The treatments were applied using a hand-held sprayer and carried out four days before inoculation with the pathogen (strategies (a) and (b)) and within 300° C./H after inoculation for strategy (2) only.
The frequency and intensity of foliar symptoms of scab were observed. Observation was carried out four to five days after the start of the first spots, using a 0 to 4 rating scale. Trees were scored individually and were made on all the leaves of each tree.

Botrytis cinerea = assay: Greenhouse control of Botrytis cinerea on tomato plants (Example 2); conditions: Prestop® 0.003% combined with glycine betaine 0.05% or 0.2%, 5 days, necrotic area width, FIG. 3
Procedure: Botrytis cinerea was grown on potato dextrose broth for 1 to 2 weeks without shaking. The resulting mycelial and spores were recovered to produce a liquid inoculum.
Tomato plants, variety Admiro (stage: 3-leaf), were sprayed with the B. cinerea inoculum (5000 sp/ml) then allowed to dry. Then, the treatments were applied by spraying the inoculated tomato plants.
The following treatments were tested (9 repetitions): (T1) Prestop® (C. rosea f. catenulatum J1446) 0.003%; (T2) Prestop® (C. rosea f. catenulatum J1446) 0.003%+glycine betaine (Intracell®, Lallemand) 0.05%; (T3) Prestop® (C. rosea f. catenulatum J1446) 0.003%+glycine betaine (Intracell®, Lallemand) 0.2%; (T4) glycine betaine (Intracell®, Lallemand) 0.2% and (T5) water.
Colby's equation was used to determine the effects expected from the components, as described above. The results were measured at 5 days after the application of the components.

[2] = tested on: C. rosea f. catenulata J1446; assay: Hyphal growth of C. rosea f. catenulata J1446 from strawberry leaf discs onto agar plates (greenhouse); conditions: discs cut 1, 2, 3, 6 days after greenhouse incubation, growth on plate 6 days; germinant added to Prestop® 0.025%; FIG. 2
Procedure: (§1) Young strawberry plants (Fragaria×ananassa; “Merced” variety) were allowed to grow at least a week before plants were selected for experiments by healthy appearance and having large leaves facing upwards. Spore counts for C. rosea f. catenulata J1446 in the package of Prestop WG used were calculated via haemocytometer to be 1.4×10^10 spores/g and viability of the spores was checked using the MPN (most probably number) method and C. rosea f. catenulata J1446 was calculated to be 3×10^9 CFU/g. […] On average, 0.5 ml of treatment was calculated to be applied per plant. […] The number of spores obtained from each slip was counted using a hemocytometer to determine deposition rate. […]
Two 6 mm leaf discs were cut using a sterilized staples hole punch from two different leaves per plant from five sprayed plants per treatment per time period (1, 2, 3, and 6 days after spraying) and placed adaxial side downwards onto paraquat-chloramphenicol agar (PCA) medium (0.1 mL paraquat, 200 mg chloramphenicol, and 12 g agar per liter of water). […] Growth around the leaf disc was measured with a ruler and recorded as average diameter of growth per day. […] Averages in treatments were analyzed.
Data for growth bioassays from 1, 2, 3, and 6 days of greenhouse incubation were all normal when distribution was analysed. […] Multiple comparisons of the mean (alpha=0.05) were analysed using a Tukey post hoc test.

[3] = tested on: C. rosea f. catenulata J1446 spores; assay: Percent germination of C. rosea f. catenulata J1446 on strawberry leaf discs; conditions: after 24 h on strawberry leaf discs; germinant added to Prestop® 0.025% (glycine betaine 0.06%/0.6%, yeast extract 0.04%/0.2%) vs Prestop® alone; FIG. 1
Procedure: as §1
On the same day, after spraying, two 6 mm leaf discs were cut using a sterilized staples hole punch from two different leaves per plant from five sprayed strawberry plants per treatment group per time period (6, 7, 8 and 24 h) and then dyed with 5 ul lactophenol cotton blue. […] Three viewing areas were chosen at random on each leaf disc and 100 spores were counted: the number that germinated (germ tubes visible at twice the length of the spore) out of that 100 was recorded. Average germination percentages were analyzed per treatment group and per time period.
Data for percent germination assays on strawberry leaves was normal when the distribution was analyzed for both greenhouse and environmental chamber studies. […]

C[N+](C)(C)CC(=O)[O-] [glycine betaine]
Frequency of foliar symptoms of scab ([1]; one application four days before inoculation + a second application after inoculation when a cumulative of 300° C./hour was reached): 58.5% | Frequency of foliar symptoms of scab ([1]; one application four days before inoculation with the pathogen): 59.6% | efficacy of Prestop® to control B. cinerea (Botrytis cinerea): increased | colonization of leaf discs by C. rosea J1446 [2]: significantly increased | percentage of spore germination of C. rosea J1446 [3]: increased
